The term IC50 denotes the concentration that inhibits the measured activity by half. Lower therefore signals higher potency.

We go through 1 compound from patent US20220056014A1, “PHENYLPYRROLIDINE COMPOUND AND USE THEREOF” (WUHAN HUMANWELL INNOVATIVE DRUG RESEARCH AND DEVELOPMENT …, priority 2018, published 2022).

Like-named read-outs stand apart in the source and are kept apart here.

Assay [1] deals with LPS-induced secretion of TNFα in human PBMCs. Nature of the assay: LPS-induced secretion of TNFα in human PBMCs. The format is cell-based. The note with it: Homo sapiens, PBMC, 24 h, LPS 10 ng/ml. The method, boiled down: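 PBMCs isolated by Lymphoprep density centrifugation were seeded at 5×10^4/well in RPMI1640 + 10% FBS and given compound, with 30 min pre-incubation, then stimulated with 10 ng/ml LPS (final). After 24 h, supernatant TNF-α was measured by ELISA kit.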

For assay [2], the system named is Mouse CIA arthritis model. Put plainly: Mouse CIA arthritis model test. The assay is classed as in vivo, DBA/1 mice. As to conditions: 30 mg/kg oral, twice a day for 21 days. How it is done:
(1) Preparation of Type II Collagen/Complete Freund's Adjuvant
Preparation of acetic acid: 2N acetic acid was diluted to 100 mM, filtered with 0.22 μm filter membrane, and stored at 4° C.
Preparation of bovine type II collagen solution: bovine type II collagen (CII) was dissolved in 100 mM acetic acid solution and stored at 4° C. overnight. A final concentration of collagen was 8 mg/mL.
Preparation of emulsion: the CII solution stored overnight was mixed with an equal volume of complete Freund's adjuvant, and homogenized on ice by a high-speed homogenizer at 30,000 rpm for approximately 60 min, until the solution formed a stable emulsion.
After DBA/1 mice were anesthetized with isoflurane, 50 μl of prepared collagen emulsion (containing 200 micrograms of CII) was injected subcutaneously in the tail (2-3 cm from the base of the tail) for immunization. The day of the primary immunization was recorded as day 0, and the following days were recorded sequentially. On day 21, the same volume of collagen emulsion was injected into the tail in the same way. Mice in the normal group were not immunized.
On day 21, the mice that had been induced to have arthritis were randomly grouped according to their body weights, such that the average body weight of each group was consistent, and they were randomly divided into 6 treatment groups for administration, with 10 mice in each group.
G1 group included normal mice without being treated; G2 group was given a blank vehicle; G3 to G7 groups were administrated with the compound at a dose of 30 mg/kg, twice a day for 21 days. The volume of oral administration was 10 mL/kg.
After the enhanced immunization, the disease incidence of the mice was observed every day. When the mice began to develop symptoms (clinical symptoms of arthritis emerged), the symptoms were graded as 0 to 4 according to the different degrees of pathological changes (redness, joint deformation), where the highest score for each limb was 4, and the highest score for each animal was 16. The mice were graded at least three times a week.
The area under curve (AUC) of clinical scores of each group from day 21 to day 42 was calculated, and the inhibition rate % of the clinical score AUC of the administration group was calculated:
Inhibition rate %=1−(administration group AUC/blank vehicle group AUC)*100%
The experimental data are expressed as Mean±standard error (Mean±SEM), and the clinical scores were analyzed with One-way ANOVA, where p<0.05 was considered to be a significant difference.

The next assay addresses T1, PDE4B (Homo sapiens, UniProt Q07343).
T1 construct: purchased Enzo Life Sciences BML-SE522-0020
Put plainly: PDE4B enzyme activity assay (PDE-Glo Phosphodiesterase Assay Kit). The format is biochemical. The method, boiled down: (§1)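 Recombinant human PDE4B (1 ng/μl working solution) or PDE4D (4 ng/μl working solution) preincubated 5 min at RT with compound, then reacted 20 min with cAMP (2 μM in added solution). PDE-Glo termination/detection and Kinase-Glo steps followed; luminescence read and IC50 fitted.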

Assay [3] deals with LPS-stimulated TNF-α release. Nature of the assay: LPS-stimulated TNF-α release in mice. As to conditions: Mus musculus, oral 50 mg/kg (positive control 100 mg/kg), 1 mg/kg LPS i.p. The format is in vivo, Balb/c mice. The protocol:
18 Balb/c mice (6 to 8 weeks) were randomly assigned to a blank group, a model group, and an administration group, 6 mice in each group. A vehicle (blank group, model group) or 50 mg/kg compound (administration group, where the dose for the positive control group was 100 mg/kg) was orally administrated. 30 min after the oral administration, PBS (blank group) or 1 mg/kg LPS (model group and administration group) was injected intraperitoneally. 90 min or 120 min after the intraperitoneal injection, blood was collected from the hearts of the mice, and still stood at 2-8° C. for 4 hours, and centrifuged at 5000 rpm for 10 min to collect the serum. The serum was stored at −80° C. for testing.
The serum TNF-α level was tested using a mouse TNF-α detection kit (Mouse TNFa ELISA kit: Biolegend, Cat: 430904). The inhibitory activity of the compounds against the TNF-α release was calculated based on the serum TNF-α level.
Inhibitory activity of compound %={1−(TNFα concentration of administration group−TNFα concentration of blank group)/(TNFα concentration of model group−TNFα concentration of blank group)}×100%.

For the next assay, the target named is T2, PDE4D (Homo sapiens, UniProt Q08499).
T2 construct: purchased Enzo Life Sciences BML-SE523-0020
Nature of the assay: PDE4D enzyme activity assay (PDE-Glo Phosphodiesterase Assay Kit). The assay is classed as biochemical. The method, boiled down:
as §1

T1 sequence (Q07343 whole entry): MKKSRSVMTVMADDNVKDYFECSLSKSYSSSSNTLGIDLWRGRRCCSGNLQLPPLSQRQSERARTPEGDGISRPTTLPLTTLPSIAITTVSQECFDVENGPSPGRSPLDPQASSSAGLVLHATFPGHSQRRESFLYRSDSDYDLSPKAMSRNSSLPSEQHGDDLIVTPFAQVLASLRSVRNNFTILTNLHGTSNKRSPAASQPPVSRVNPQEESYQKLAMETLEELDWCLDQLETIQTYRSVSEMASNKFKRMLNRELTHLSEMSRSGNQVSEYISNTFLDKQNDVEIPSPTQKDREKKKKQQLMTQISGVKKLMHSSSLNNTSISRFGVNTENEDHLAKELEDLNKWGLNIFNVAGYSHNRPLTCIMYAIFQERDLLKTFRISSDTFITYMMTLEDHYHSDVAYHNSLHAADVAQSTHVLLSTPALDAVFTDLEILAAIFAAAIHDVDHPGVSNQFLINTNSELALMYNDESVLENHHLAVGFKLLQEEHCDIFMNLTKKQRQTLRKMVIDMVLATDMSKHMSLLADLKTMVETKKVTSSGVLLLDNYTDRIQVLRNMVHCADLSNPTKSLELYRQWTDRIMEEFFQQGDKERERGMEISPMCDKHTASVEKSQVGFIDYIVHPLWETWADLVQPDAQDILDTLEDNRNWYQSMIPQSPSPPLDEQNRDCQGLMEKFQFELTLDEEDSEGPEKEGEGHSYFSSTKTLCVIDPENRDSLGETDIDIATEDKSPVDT
T2 sequence (Q08499 whole entry): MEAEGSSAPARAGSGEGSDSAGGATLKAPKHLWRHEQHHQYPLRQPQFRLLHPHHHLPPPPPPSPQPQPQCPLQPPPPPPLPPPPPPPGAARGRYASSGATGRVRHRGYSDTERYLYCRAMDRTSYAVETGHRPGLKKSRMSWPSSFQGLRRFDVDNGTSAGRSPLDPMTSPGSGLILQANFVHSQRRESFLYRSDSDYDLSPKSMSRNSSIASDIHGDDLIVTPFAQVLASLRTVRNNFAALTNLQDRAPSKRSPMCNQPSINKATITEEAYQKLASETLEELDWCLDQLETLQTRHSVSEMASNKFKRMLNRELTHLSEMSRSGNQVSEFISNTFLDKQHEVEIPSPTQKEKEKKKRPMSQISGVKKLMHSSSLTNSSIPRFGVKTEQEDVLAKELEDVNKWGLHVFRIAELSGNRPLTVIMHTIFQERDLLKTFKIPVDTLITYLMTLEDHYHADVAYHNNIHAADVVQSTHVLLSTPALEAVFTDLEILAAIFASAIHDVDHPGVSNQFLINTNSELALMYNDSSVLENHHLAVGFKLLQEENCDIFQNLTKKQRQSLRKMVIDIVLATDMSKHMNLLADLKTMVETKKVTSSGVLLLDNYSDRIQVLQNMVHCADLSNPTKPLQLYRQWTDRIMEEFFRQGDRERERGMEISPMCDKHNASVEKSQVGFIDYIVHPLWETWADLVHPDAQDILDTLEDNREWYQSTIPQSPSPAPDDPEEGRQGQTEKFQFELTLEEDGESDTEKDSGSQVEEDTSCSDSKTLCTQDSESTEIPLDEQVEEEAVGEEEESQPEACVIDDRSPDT

Take `CCc1ccc(N2CC(Oc3cc([C@@H]4CN(C(=O)[C@@H](O)CO)C[C@@]4(C)[C@@H](C)O)ccc3OC)C2)nc1` [Compound 031, (S)-1-((3S,4S)-4-(3-((1-(5-ethylpyridin-2-yl)azetidin-3-yl)oxy)-4-methoxyphenyl)-3-((R)-1-hydroxyethyl)-3-methylpyrrolidin-1-yl)-2,3-dihydroxypropan-1-one]: the figures for the IC50 (in assay [1]; against PDE4B; on PDE4D) were 0.7 nM, 1.87 nM and 2.56 nM, respectively. The “inhibition rate based on clinical score AUC” value in assay [2] (AUC day 21 to day 42) is on record as 85.0%. Besides, the “Clinical score (endpoint)” value in assay [2] (day 42, highest score 16) stood at 2.1. Moreover, the “IC50 (PDE4D)/IC50 (PDE4B)” value on PDE4B (selectivity ratio) came out at 1.37. For the same compound, the inhibition in vivo at 50 mg/kg in assay [3] (1.5 h, blood 90 min after LPS, read-out: Inhibition rate (%) of LPS-stimulated TNF-α release, 90 min) was 64.8%; in assay [3] (2 h, blood 120 min after LPS, read-out: Inhibition rate (%) of LPS-stimulated TNF-α release, 120 min), 78.3%.
